Data on 11 compounds can be found in patent US7202024B2, “bbc3 Gene promoter and methods for identifying modulators of apoptosis and bbc3 gene expression using a bbc3 gene promoter” (Immunogen Inc., priority 2001, dated 2007).

Experiment [1] concerns Bbc3 protein. Put plainly: Western blot of Bbc3 protein in HT29 cells. It is filed as cell-based, human. To be noted: for ability of serum to suppress Bbc3 protein levels: HT29 cells in serum, 50 μM LY294002, 10 μM PD98059, 30 μM AG1478 or 50 μM AG1024; for ability of serum to suppress Bbc3 protein levels / Bbc3 protein expression: 24 hrs; for Bbc3 protein expression: 100 ng/ml IGF-1, 50 ng/ml EGF or 25 ng/ml PDGF. The method, then:
(§1) HT29 cells were incubated for one day in the absence of serum (−), and then incubated in media containing either serum, 100 ng/ml IGF-1, 50 ng/ml EGF, or 25 ng/ml PDGF, for 24 hrs. Bbc3 was detected by western blot analysis, followed by sequential probing of the blot with anti-Bax and anti-Bcl-xL antibodies.
HT29 cells were cultured as in FIG. 6B and then incubated for 24 hrs in media containing either serum, 100 ng/ml IGF-1, or 100 ng/ml IGF-1 in the presence of 50 μM LY294002 (added 1 hr prior to IGF-1). Bbc3 was detected by western blot analysis.
HT29 cells were grown in the presence of serum (lane 1), and then incubated for 24 hrs in the absence of serum, or in the presence of serum supplemented with 50 μMLY294002.
HT29 cells were incubated for one day in the absence of serum (−), and then incubated in media containing either serum, 50 ng/ml EGF, or 50 ng/ml EGF+30 nM AG1478, for 24 hrs. Bbc3 was detected by western blot analysis.
HT29 cells were cultured in the presence of serum for one day (+) and then incubated for 24 hrs with serum or without serum, or in the presence of serum supplemented with either 10 μM PD98059, 30 μM AG1478, or 50 μM AG1024. Bbc3 was detected by western blot analysis, followed by reprobing of the blot with anti-Bax.
(§2) A mouse monoclonal antibody, KM140, was made against a recombinant GST-Bbc3 fusion protein. The KM140 epitope was mapped to residues 73–76 by probing a blot with arrayed overlapping Bbc3 peptides (Research Genetics). Cells were plated at 3–10×10^6 cells per 100 mm dish in either serum containing (10% FBS), or serum free media (0% FBS, 0.1% BSA). Cell lysates were prepared, electrophoresed (100 to 200 μg per lane) on 4–20% polyacrylamide reducing gels, and analyzed by western blotting as described previously (Chittenden, T., et al., EMBO J. 14:5589–96 (1995)).
Background: Immunoblotting shows a protein as a band on a membrane.

For a further experiment, the system named is Bax. Kind of experiment: Western blot of Bax in HT29 cells. To be noted: serum-starved HT29 cells, 24 hrs; 100 ng/ml IGF-1 or 50 ng/ml EGF. Type of experiment: cell-based, human. As for the experimental part: as §1, §2
For another experiment, the system named is Bcl-xL. Put plainly: Western blot of Bcl-xL in HT29 cells. Type of experiment: cell-based, human. To be noted: serum-starved HT29 cells, 24 hrs; 100 ng/ml IGF-1 or 50 ng/ml EGF. The method, then: as §1, §2
The subject of the next experiment is bbc3 gene promoter. Put plainly: bbc3 gene promoter luciferase reporter assay (pGL3/0.9) in HeLa/Bcl-xL cells. Type of experiment: cell-based, human. The following applies: pGL3/0.9, no serum, 100 ng/ml IGF-1, 24 hrs. As for the experimental part: The pGL3/0.9 bbc3 gene promoter luciferase reporter plasmid was transfected into HeLa-Bcl-xL cells. At 24 hrs after transfection, cells were incubated for an additional 24 hrs in the presence of 20% serum (+) with or without 50 μM LY294002, or in the absence of serum (−) with or without 100 ng/ml IGF-1. Luciferase activity was measured and normalized for transfection efficiency (β-galactosidase).
Additional experiments were performed to determine whether the bbc3 gene promoter was regulated by signal transduction pathways known to play a role in cell survival. A bbc3 gene promoter-luciferase reporter construct containing 0.9 kb of the bbc3 gene promoter region, was transfected into HeLa/Bcl-xL cells and the activity of the promoter measured by luciferase assays 48 hours after transfection. […] Thus, a PI-3 kinase dependent pathway controls, at least in part, the activity of the bbc3 gene promoter. […]
Luciferase assays were performed using the Dual-Light System (Tropix) for the combined detection of luciferase and β-galactosidase. […] Luciferase and β-galactosidase activities were measured 24 hours following transfection. […] Cell culture medium was changed to either DMEM containing 20% serum, or DMEM without serum, 24 hours following transfection and luciferase/β-galactosidase levels were measured after an additional 24 hours of incubation. […]
Background: In a reporter assay the amount or activity of a reporter protein is the signal.

The subject of experiment [2] is bbc3 mRNA. Put plainly: Northern blot of bbc3 mRNA in NIH3T3 cells. It is filed as cell-based, murine. To be noted: etoposide 50 μM, 6 hours. As for the experimental part:
(§3) Northern blots were hybridized with a murine bbc3 cDNA probe, followed by re-hybridization with an actin probe.
To evaluate whether the activity of bbc3 might be under transcriptional control, the expression of bbc3 was examined in response to apoptotic stimuli likely to involve new mRNA/protein synthesis.
(§4) Total RNA was isolated from mouse thymocytes (RNeasy system, Qiagen). Poly(A)+RNA (FastTract system, Invitrogen) was prepared in all other experiments. 10 μg of total RNA or 3 μg of poly(A)+RNA per lane was denatured and separated by electrophoresis in 1% formaldehyde agarose gels. Northern blotting was performed following standard methods.

In experiment [3] the test system is bbc3 mRNA. Put plainly: Northern blot of bbc3 mRNA in E1a/Ras/p53MER mouse fibroblast cell line. The following applies: p53-estrogen receptor fusion cells, 4-OHT 100 nM, 5 hours. It is filed as cell-based.
Excerpt: as §3
Cell death induced by etoposide and other DNA-damaging drugs in murine fibroblasts is mediated, at least in part, by the p53 tumor suppressor (Levine, A. J., Cell 88:323–31 (1997); Vousden, K. H., Cell 103:691–4 (2000)).
(§5) All cell lines used were obtained from ATCC, unless otherwise noted. HeLa/Bcl-XL cells were generated by stable transfection of HeLa cells with a vector encoding a Flag-epitope tagged BCl-xL. Murine myeloid leukemia M1 cells containing a temperature sensitive p53-val135 mutant (M1p53ts), and E1A/ras transformed p53^−/−mouse embryonic fibroblasts containing a p53-estrogen receptor fusion, have been described previously (Vater, C. A., et al., Oncogene 13:739–48 (1996); Yonish-Rouach, E., et al., Nature 352:345–7 (1991)).
as §4

Experiment [4] deals with bbc3 mRNA. Kind of experiment: Northern blot of bbc3 mRNA in M1p53ts cells after temperature shift. It is filed as cell-based, murine. The following applies: M1p53ts cells shifted to 32° C. for 6 hours in the presence of IL-6.
Excerpt: as §3
(Yonish-Rouach, E., et al., Nature 352:345–7 (1991)). […] (FIG. 3C). […] (FIG. 3C).
as §5, §4

The subject of experiment [5] is Bbc3 protein. Kind of experiment: Western blot of Bbc3 in serum-starved Jurkat cells. It is filed as cell-based, human. To be noted: without serum 24 hrs, z-VAD 100 μM.
Excerpt: (§6) Bbc3 and PARP were detected by western blot analysis.
(§7) Deprivation of serum is a strong pro-apoptotic stimulus for many cultured tumor cell lines, triggering cell death or sensitizing cells to other apoptotic stimuli. Thus, the effect of serum deprivation on bbc3 mRNA expression and Bbc3 protein levels was also examined, using a monoclonal antibody generated against recombinant human Bbc3. A striking increase in Bbc3 protein levels was observed upon serum deprivation in multiple human tumor cell lines (FIG. 5B), including cell lines that lack functional p53. […] Therefore, the induction of Bbc3 precedes caspase activation, and is not simply a response to the engagement of the cell death program.
as §2

The subject of the next experiment is PARP. Kind of experiment: Western blot of PARP cleavage in serum-starved Jurkat cells. Type of experiment: cell-based, human. The following applies: without serum 24 hrs, z-VAD 100 μM.
Excerpt: as §6, §7, §2

In the next experiment the target is GST-Bcl-xL (Homo sapiens, UniProt Q07817). Put plainly: Bcl-xL competition binding assay (ELISA, immobilized Bak BH3 peptide). To be noted: competition with immobilized Bak BH3 peptide. The method, then: Binding of GST-Bcl-xL to an immobilized Bak BH3 peptide was measured by ELISA (triplicate samples, +S.D.), in the presence of the indicated concentrations of a competing synthetic Bbc3 BH3 or Bak BH3 peptide.
GST-Bcl-xL, sequence (Q07817 whole entry, the tested form may be a part): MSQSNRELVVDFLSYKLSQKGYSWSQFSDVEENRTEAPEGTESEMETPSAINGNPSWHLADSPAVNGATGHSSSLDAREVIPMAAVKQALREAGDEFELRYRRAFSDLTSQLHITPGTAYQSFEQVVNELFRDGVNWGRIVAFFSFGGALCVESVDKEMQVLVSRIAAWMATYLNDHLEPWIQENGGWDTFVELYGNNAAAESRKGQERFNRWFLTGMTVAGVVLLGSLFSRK
Cell lysates were prepared and co-immunoprecipitation assays were performed as described previously (Chittenden, T., et al., EMBO J. 14:5589–96 (1995)). The Bcl-xL competition binding assay was performed as previously described (Zhou, X. M., et al., J. Biol. Chem. 275:25046–51 (2000)), using synthetic BH3 peptides comprising residues 133–152 of Bbc3, and residues 70–89 of Bak.
For orientation: An ELISA detects its analyte on a solid surface through an enzyme-linked reagent.

Peptide text beside a SMILES is read from it. * marks the point of attachment. Cbz = O=C(OCc1ccccc1)*; CH2F = FC*

As for `CC(C)(C)c1cc(C=C(C#N)C#N)cc(Br)c1O` [tyrphostin AG1024], in the experiment on Bbc3 protein [1], the “ability of serum to suppress Bbc3 protein levels” value (from here on “ability of serum”) was “impaired the ability of serum to suppress Bbc3 protein expression”.
Consider “IGF-1: growth factor with broad anti-apoptotic activity”, for which the Bbc3 protein expression entry in the experiment with Bbc3 protein [1] (serum-starved HT29 cells) is “strongly inhibited Bbc3 protein expression”. Besides, the Bax protein level result in the experiment on Bax is reported as “no effect”. The Bcl-xL protein level result in the experiment with Bcl-xL is on record as “no effect”. In addition, the “induction of bbc3 gene promoter activity (luciferase) in the absence of serum” value with bbc3 gene promoter is on record as “substantially reduced”.
For the compound PDGF, the Bbc3 protein expression entry with Bbc3 protein [1] (serum-starved HT29 cells) is listed as “failed to suppress Bbc3 levels”.
Consider `COc1cc([C@@H]2c3cc4c(cc3[C@@H](O[C@@H]3O[C@@H]5CO[C@@H](C)O[C@H]5[C@H](O)[C@H]3O)[C@H]3COC(=O)[C@H]23)OCO4)cc(OC)c1O` [etoposide], for which, in the experiment with bbc3 mRNA [2], the “bbc3 mRNA levels” value is “rapid induction of bbc3 mRNA levels”.
Take 4-hydroxytamoxifen [4-OHT]: the “bbc3 mRNA levels” value in the experiment with bbc3 mRNA [3] is listed as “sufficient to induce bbc3 mRNA levels”.
Regarding “IL-6: IL-6, which suppresses apoptosis induced by p53 in M1 cells”, the “induction of bbc3 mRNA by wild-type p53” value with bbc3 mRNA [4] is given as “did not prevent induction of bbc3 mRNA”.
In the case of “EGF: growth factor with broad anti-apoptotic activity (NSDSECPLSHDGYCLHDGVCMYIEALDKYACNCVVGYIGERCQYRDLKWWELR; UniProt P01133 971-1023, looked up)”, in the experiment with Bbc3 protein [1] (serum-starved HT29 cells), the Bbc3 protein expression entry is on record as “strongly inhibited Bbc3 protein expression”. The Bax protein level result in the experiment on Bax is “no effect”. In addition, the Bcl-xL protein level entry in the experiment with Bcl-xL is “no effect”.
As to `CC(NC(=O)C(NC(=O)OCc1ccccc1)C(C)C)C(=O)NC(CC(=O)O)C(=O)CF` (stereo not drawn) [z-VAD] (Cbz-Val-Ala-Asp-CH2F; configuration not given here), the “induction of Bbc3 protein levels by serum deprivation” value in the experiment with Bbc3 protein [5] was “no impact on the induction of Bbc3 protein levels”. For the same compound, the “cleavage of the caspase substrate PARP” value in the experiment with PARP is recorded as “prevented cleavage of the caspase substrate, PARP”.
“Bbc3 BH3 peptide: 20 amino acid synthetic peptide encompassing the Bbc3 BH3 domain (residues 133 to 152) (WAREIGAQLRRMADDLNAQY)”: the “binding affinity to recombinant GST-Bcl-xL in vitro” value with GST-Bcl-xL is “affinity comparable to a previously characterized Bak BH3 peptide”.
On to `COc1cccc(-c2cc(=O)c3ccccc3o2)c1N` [PD98059], for which the “ability of serum” value in the experiment with Bbc3 protein [1] was “impaired the ability of serum to suppress Bbc3 protein expression”.
Regarding `COc1cc2ncnc(Nc3cccc(Cl)c3)c2cc1OC` [AG1478], the “ability of serum” value in the experiment on Bbc3 protein [1] was “blocked the ability of EGF and serum to suppress Bbc3 protein expression”. Besides, the “ability of EGF to suppress Bbc3 protein expression” value in the experiment with Bbc3 protein [1] (serum-starved HT29 cells, 50 ng/ml EGF + 30 nM AG1478, 24 hrs) is “blocked the ability of EGF and serum to suppress Bbc3 protein expression”.
